Data published in ChEMBL document CHEMBL4346657, “Anticancer activity, dual prooxidant/antioxidant effect and apoptosis induction profile of new bichalcophene-5-carboxamidines” (Eur J Med Chem, 2019).
The source made the active and inactive calls. The rule behind the calls is not given here.

Experiments:
[1] = tested on: OVCAR-8; assay: Antiproliferative activity against human OVCAR8 cells assessed as growth inhibition after 48 hrs by sulforhodamine B assay; assay type: functional; conditions: OVCAR-8, 48 h
[2] = tested on: NCI-H226; assay: Antiproliferative activity against human NCI-H226 cells assessed as growth inhibition after 48 hrs by sulforhodamine B assay; assay type: functional; conditions: NCI-H226, 48 h
[3] = tested on: TK-10; assay: Antiproliferative activity against human TK10 cells assessed as growth inhibition after 48 hrs by sulforhodamine B assay; assay type: functional; conditions: TK-10, 48 h
[4] = tested on: HCT-116; assay: Induction of apoptosis in human HCT116 cells assessed as increase in caspase 9 mRNA expression at 100 nM after 6 hrs hrs by SYBR green dye-based qRT-PCR analysis relative to control; assay type: functional
[5] = tested on: HCT-15; assay: Antiproliferative activity against human HCT15 cells assessed as growth inhibition after 48 hrs by sulforhodamine B assay; assay type: functional; conditions: HCT-15, 48 h
[6] = tested on: A549; assay: Antiproliferative activity against human A549/ATCC cells assessed as growth inhibition after 48 hrs by sulforhodamine B assay; assay type: functional; conditions: A549, 48 h
[7] = tested on: SK-MEL-2; assay: Antiproliferative activity against human SK-MEL-2 cells assessed as growth inhibition after 48 hrs by sulforhodamine B assay; assay type: functional; conditions: SK-MEL-2, 48 h
[8] = tested on: SK-MEL-5; assay: Antiproliferative activity against human SK-MEL-5 cells assessed as growth inhibition after 48 hrs by sulforhodamine B assay; assay type: functional; conditions: SK-MEL-5, 48 h
[9] = tested on: OVCAR-4; assay: Antiproliferative activity against human OVCAR4 cells assessed as growth inhibition after 48 hrs by sulforhodamine B assay; assay type: functional; conditions: OVCAR-4, 48 h
[10] = tested on: NCI-H23; assay: Antiproliferative activity against human NCI-H23 cells assessed as growth inhibition after 48 hrs by sulforhodamine B assay; assay type: functional; conditions: NCI-H23, 48 h
[11] = tested on: RPMI-8226; assay: Antiproliferative activity against human RPMI8226 cells assessed as growth inhibition after 48 hrs by sulforhodamine B assay; assay type: functional; conditions: RPMI-8226, 48 h
[12] = tested on: Panel NCI-60 (60 carcinoma cell lines); assay: Antiproliferative activity against human NCI60 cells assessed as growth inhibition at 10 uM after 48 hrs by sulforhodamine B assay; assay type: functional; conditions: read-out: GI
[13] = Haemolytic activity in human erythrocytes assessed as induction of hemolysis at 10 mM after 30 mins relative to H202; assay type: cell-based, Erythrocyte; conditions: read-out: Activity
[14] = tested on: OVCAR-5; assay: Antiproliferative activity against human OVCAR5 cells assessed as growth inhibition after 48 hrs by sulforhodamine B assay; assay type: functional; conditions: OVCAR-5, 48 h
[15] = tested on: CAKI-1; assay: Antiproliferative activity against human CAKI-1 cells assessed as growth inhibition after 48 hrs by sulforhodamine B assay; assay type: functional; conditions: CAKI-1, 48 h
[16] = tested on: HT-29; assay: Antiproliferative activity against human HT-29 cells assessed as growth inhibition after 48 hrs by sulforhodamine B assay; assay type: functional; conditions: HT-29, 48 h
[17] = Antioxidant activity assessed as DPPH radical scavenging activity incubated in dark for 30 mins by spectrophotometric method relative to control; assay type: functional; design: concentration or dose not given beside the values
[18] = tested on: RXF 393; assay: Antiproliferative activity against human RXF393 cells assessed as growth inhibition after 48 hrs by sulforhodamine B assay; assay type: functional; conditions: RXF 393, 48 h
[19] = tested on: MDA-MB-468; assay: Antiproliferative activity against human MDA-MB-468 cells assessed as growth inhibition after 48 hrs by sulforhodamine B assay; assay type: functional; conditions: MDA-MB-468, 48 h
[20] = tested on: 786-0; assay: Antiproliferative activity against human 786-0 cells assessed as growth inhibition after 48 hrs by sulforhodamine B assay; assay type: functional; conditions: 786-0, 48 h
[21] = tested on: ACHN; assay: Antiproliferative activity against human ACHN cells assessed as growth inhibition after 48 hrs by sulforhodamine B assay; assay type: functional
[22] = tested on: SN12C; assay: Antiproliferative activity against human SN12C cells assessed as growth inhibition after 48 hrs by sulforhodamine B assay; assay type: functional
[23] = tested on: SK-OV-3; assay: Antiproliferative activity against human SKOV3 cells assessed as growth inhibition after 48 hrs by sulforhodamine B assay; assay type: functional; conditions: SK-OV-3, 48 h
[24] = tested on: SNB-75; assay: Antiproliferative activity against human SNB75 cells assessed as growth inhibition after 48 hrs by sulforhodamine B assay; assay type: functional; conditions: SNB-75, 48 h
[25] = tested on: Hs-578T; assay: Antiproliferative activity against human Hs578T cells assessed as growth inhibition after 48 hrs by sulforhodamine B assay; assay type: functional
[26] = tested on: CCRF-CEM; assay: Antiproliferative activity against human CCRF-CEM cells assessed as growth inhibition after 48 hrs by sulforhodamine B assay; assay type: functional
[27] = tested on: SF-268; assay: Antiproliferative activity against human SF268 cells assessed as growth inhibition after 48 hrs by sulforhodamine B assay; assay type: functional; conditions: SF-268, 48 h
[28] = tested on: SK-MEL-28; assay: Antiproliferative activity against human SK-MEL-28 cells assessed as growth inhibition after 48 hrs by sulforhodamine B assay; assay type: functional; conditions: SK-MEL-28, 48 h
[29] = tested on: HL-60(TB); assay: Antiproliferative activity against human HL-60(TB) cells assessed as growth inhibition after 48 hrs by sulforhodamine B assay; assay type: functional; conditions: HL-60, 48 h
[30] = tested on: U-251; assay: Antiproliferative activity against human U251 cells assessed as growth inhibition after 48 hrs by sulforhodamine B assay; assay type: functional; conditions: U-251, 48 h
[31] = tested on: UO-31; assay: Antiproliferative activity against human UO31 cells assessed as growth inhibition after 48 hrs by sulforhodamine B assay; assay type: functional; conditions: UO-31, 48 h
[32] = tested on: Erythrocyte; assay: Haemolytic activity in human erythrocytes assessed as induction of hemolysis at 1.25 mM after 30 mins relative to H202; assay type: cell-based; conditions: erythrocyte, 0.5 h, 1250 µM
[33] = tested on: MOLT-4; assay: Antiproliferative activity against human MOLT4 cells assessed as growth inhibition after 48 hrs by sulforhodamine B assay; assay type: functional; conditions: MOLT-4, 48 h
[34] = Antioxidant activity assessed as ABTS radical scavenging activity by spectrophotometric analysis relative to control; assay type: functional; design: concentration or dose not given beside the values; conditions: dose or concentration not given here
[35] = Pro-oxidant activity assessed as increase in bleomycin-Fe2+ induced calf thymus DNA damage at 2 mM after 1 hr by thiobarbituric acid based absorbance analysis
[36] = tested on: HCT-116; assay: Induction of apoptosis in human HCT116 cells assessed as increase in p53 mRNA expression at 100 nM after 6 hrs hrs by SYBR green dye-based qRT-PCR analysis relative to control; assay type: functional
[37] = tested on: MCF7; assay: Antiproliferative activity against human MCF7 cells assessed as growth inhibition after 48 hrs by sulforhodamine B assay; assay type: functional; conditions: MCF7, 48 h
[38] = tested on: SF-539; assay: Antiproliferative activity against human SF539 cells assessed as growth inhibition after 48 hrs by sulforhodamine B assay; assay type: functional; conditions: SF-539, 48 h
[39] = tested on: SF-295; assay: Antiproliferative activity against human SF295 cells assessed as growth inhibition after 48 hrs by sulforhodamine B assay; assay type: functional; conditions: SF-295, 48 h
[40] = tested on: HCT-116; assay: Antiproliferative activity against human HCT116 cells assessed as growth inhibition after 48 hrs by sulforhodamine B assay; assay type: functional; conditions: HCT-116, 48 h
[41] = tested on: M14; assay: Antiproliferative activity against human M14 cells assessed as growth inhibition after 48 hrs by sulforhodamine B assay; assay type: functional; conditions: M14, 48 h
[42] = tested on: PC-3; assay: Antiproliferative activity against human PC3 cells assessed as growth inhibition after 48 hrs by sulforhodamine B assay; assay type: functional; conditions: PC-3, 48 h

## N=C(N)c1ccc(-c2ccc(-c3cc(Cl)cc(Cl)c3)s2)s1
[1]
  GI50: 2390 nM
[2]
  GI50: 30800 nM
[3]
  GI50: 1850 nM
[4]
  fold change (FC): 1.54
[5]
  GI50: 1620 nM
[6]
  GI50: 2070 nM
[7]
  GI50: 2240 nM
[8]
  GI50: 1900 nM
[9]
  GI50: 1910 nM
[10]
  GI50: 1990 nM
[11]
  GI50: 2330 nM
[12]
  inhibition of growth at 10 µM: -28.6%
[13]
  hemolysis at 0.5 h, 10000 µM: 17%
[14]
  GI50: 1960 nM
[15]
  GI50: 1720 nM
[16]
  GI50: 1650 nM
[17]
  inhibition: 27.2%
[18]
  GI50: 1850 nM
[19]
  GI50: 2060 nM
[20]
  GI50: 1980 nM
[21]
  GI50: 1750 nM
[22]
  GI50: 2020 nM
[23]
  GI50: 3620 nM
[24]
  GI50: 1380 nM
[25]
  GI50: 2150 nM
[26]
  GI50: 2140 nM
[27]
  GI50: 1960 nM
[28]
  GI50: 1830 nM
[29]
  GI50: 1660 nM
[30]
  GI50: 1860 nM
[31]
  GI50: 1740 nM
[32]
  Activity: Non-Toxic
[33]
  GI50: 1710 nM
[34]
  inhibition: 36.2%
[35]
  Activity: Active
[36]
  fold change (FC): 3.98
[37]
  GI50: 1340 nM
[38]
  GI50: 1700 nM
[39]
  GI50: 1960 nM
[40]
  GI50: 1610 nM
[41]
  GI50: 2020 nM
[42]
  GI50: 1880 nM

## N=C(N)c1ccc(-c2ccc(-c3ccccc3)o2)o1
[1]
  GI50: 4000 nM
[2]
  GI50: 5700 nM
[3]
  GI50: 3320 nM
[4]
  fold change (FC): 2.28
[5]
  GI50: 1160 nM
[6]
  GI50: 3550 nM
[7]
  GI50: 2250 nM
[8]
  GI50: 1750 nM
[9]
  GI50: 3480 nM
[10]
  GI50: 5780 nM
[11]
  GI50: 2890 nM
[12]
  inhibition of growth at 10 µM: 68.2%
[13]
  hemolysis at 0.5 h, 10000 µM: 66.7%
[14]
  GI50: 2700 nM
[15]
  GI50: 3400 nM
[16]
  GI50: 2110 nM
[17]
  inhibition: 30.9%
[18]
  GI50: 2330 nM
[19]
  GI50: 1640 nM
[20]
  GI50: 1740 nM
[21]
  GI50: 2560 nM
[22]
  GI50: 3120 nM
[23]
  GI50: 4300 nM
[24]
  GI50: 1600 nM
[25]
  GI50: 3810 nM
[26]
  GI50: 3580 nM
[27]
  GI50: 2980 nM
[28]
  GI50: 1900 nM
[29]
  GI50: 2180 nM
[30]
  GI50: 2220 nM
[31]
  GI50: 1540 nM
[32]
  Activity: Non-Toxic
[33]
  GI50: 3310 nM
[34]
  inhibition: 41.3%
[35]
  Activity: Active
[36]
  fold change (FC): 0.95
[37]
  GI50: 1680 nM
[38]
  GI50: 1950 nM
[39]
  GI50: 1810 nM
[40]
  GI50: 2070 nM
[41]
  GI50: 1620 nM
[42]
  GI50: 2640 nM
